Results as given in article PMC11862134 (Nature Communications, 2025).
No end group written: not given here.

Experiments:
BAM1 and BAM3 receptor = conditions: upon reaching the leaves, drought stress; cited from earlier work
[1] = molecular target: GST-tagged TaCLV1-LRR (extracellular domains of TaCLV1, residues 58-668) (wheat (Triticum aestivum L.)); assay: MST

CLE25: CLE25 peptide, messenger of water deficiency from roots to leaves (RKVPNGPDPIHN; ends and bridges not checked; UniProt Q8LFL4 58-69, looked up)
interaction with BAM1 and BAM3 receptor (BAM1 and BAM3 receptor): interacts with and activates BAM1 and BAM3 receptor

B1: mature TaCLE24b peptide (peptide)
peptide: RLSPGGSNPQHH
Kd [1]: 19.4 nM
